{
  "source": "patent US20040143004A1",
  "about": "“Metronomic dosing of taxanes” (priority 2004, published 2004)",
  "test_system": "endothelial cells in MATRIGEL plugs",
  "description": "LX1 human lung tumor fragments that were maintained by serial subcutaneous passage in athymic (nu/nu) Balb/c mice were implanted subcutaneously as small fragments approximately 0.1 mm^3 in size. Tumor volume doubling time for this tumor in these studies was 2.8 days. When tumors reached the size range of 150-200 mm^3, liquid [sequence] was injected subcutaneously on the side contralateral to the tumor. Treatment was initiated 24 hours later at varying doses and schedules. Prior to implanting, [sequence] is prepared by placing solidified [sequence] on ice overnight at 4 C. in accordance with the method described by Passiniti et al. (Lab. Invest. 1992 67:519-28). At the liquid phase and while on ice, VEGF and bFGF (Peprotech, Inc. Rocky Hill, N.J.) is added to the [sequence] at final respective concentrations of 75 ng/ml and 300 ng/ml. […] These plugs were then processed for paraffin embedding and sectioned at 5 μm thickness followed by staining with hematoxylin and eosin prior to quantitative analysis. The number of endothelial cells in plugs was quantitated using the IMAGEPRO PLUS software (Media Cybernetics, Inc., Silver Spring, Md.) at a magnification of 20×. […]\nAngiogenesis is evaluated in these plugs as the number of endothelial cells migrating into plugs from compound treated groups relative to the vehicle treated group.",
  "data": [
    {"compound": "COC(=O)O[C@@]12CO[C@@H]1C[C@H](O)[C@@]1(C)C(=O)[C@H](OC(C)=O)C3=C(C)[C@@H](OC(=O)[C@H](O)[C@@H](NC(=O)OC(C)(C)C)C(C)(C)C)C[C@@](O)([C@@H](OC(=O)c4ccccc4)[C@H]21)C3(C)C", "note": "[Formula I, 3′-tert-butyl-3′-N-tert-butyloxycarbonyl-4-deacetyl-3′-dephenyl-3′-N-debenzoyl-4-O-methoxycarbonyl-paclitaxel]", "values": [
      {"measurement": "dose below MTD at which anti-angiogenic effects are still observed in vivo", "setting": "fold lower than the maximum tolerated dose", "result": "approximately 13 fold"},
      {"measurement": "maximum tolerated dose (MTD)", "setting": "mice, q2dx5 schedule", "result": 60, "unit": "mg/kg"}
    ]}
  ]
}
